According to ChEMBL document CHEMBL4613322, “HOPPI-NMR: Hot-Peptide-Based Screening Assay for Inhibitors of Protein-Protein Interactions by NMR” (ACS Med Chem Lett, 2020):
The source made the active and inactive calls. No cut-off for these calls is given here. Peptide text beside a SMILES is read from it.

Legend:
[1] = Binding affinity to IPTG-induced […] human TEV cleavage site-fused- GST-tagged beta-catenin (134 to 665 residues) assessed as inhibition of beta-catenin/axin protein-protein interaction after 45 mins by fluorescence polarization assay
[2] = target: T1, E3 ubiquitin-protein ligase Mdm2 (Homo sapiens, UniProt Q00987); test: Binding affinity to N-terminal 6xHis-tagged MDM2 (unknown origin) (1 to 126 residues) assessed as inhibition of MDM2/p53 protein-protein interaction by fluorescence anisotrophy assay
Target sequence in this assay (Q00987 whole entry, the tested form may be a part): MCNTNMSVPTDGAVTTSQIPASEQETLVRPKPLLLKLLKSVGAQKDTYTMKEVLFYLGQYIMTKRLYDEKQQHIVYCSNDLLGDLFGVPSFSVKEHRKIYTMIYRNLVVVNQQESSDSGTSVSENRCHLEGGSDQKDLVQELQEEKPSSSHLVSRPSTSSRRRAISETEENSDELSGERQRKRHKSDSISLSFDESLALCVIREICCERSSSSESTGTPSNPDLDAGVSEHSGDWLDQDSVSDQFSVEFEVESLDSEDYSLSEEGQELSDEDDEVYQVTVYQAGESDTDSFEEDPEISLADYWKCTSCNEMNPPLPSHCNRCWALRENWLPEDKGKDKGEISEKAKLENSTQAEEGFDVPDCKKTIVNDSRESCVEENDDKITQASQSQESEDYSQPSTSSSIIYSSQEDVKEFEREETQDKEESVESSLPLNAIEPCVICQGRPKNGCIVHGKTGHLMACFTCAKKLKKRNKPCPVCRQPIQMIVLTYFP

[3] = target: T1, E3 ubiquitin-protein ligase Mdm2; test: Competitive binding affinity to 6xHis-taged MDM2 (unknown origin) expressed in Escherichia coli Gold (DE3) assessed as reduction in signal intensity at 0.1 mM in presence of 0.1 mM nutlin-3a by WATERLOGSY-NMR analysis
Target sequence in this assay (Q00987 whole entry, looked up, the tested form may be a part): as the sequence (Q00987 whole entry, the tested form may be a part) above

[4] = target: T1, E3 ubiquitin-protein ligase Mdm2; test: Competitive binding affinity to 6xHis-taged MDM2 (unknown origin) expressed in Escherichia coli Gold (DE3) assessed as reduction in STD signal intensity at 0.1 mM in presence of 0.1 mM nutlin-3a by STD-NMR analysis
Target sequence in this assay (Q00987 whole entry, looked up, the tested form may be a part): as the sequence (Q00987 whole entry, the tested form may be a part) above

[5] = target: T1, E3 ubiquitin-protein ligase Mdm2; test: Binding affinity to 6xHis-taged MDM2 (unknown origin) expressed in Escherichia coli Gold (DE3) assessed as increase in signal-to-noise ratio at 0.1 mM by STD-NMR analysis
Target sequence in this assay (Q00987 whole entry, looked up, the tested form may be a part): as the sequence (Q00987 whole entry, the tested form may be a part) above

[6] = target: T1, E3 ubiquitin-protein ligase Mdm2; test: Binding affinity to 6xHis-taged MDM2 (unknown origin) expressed in Escherichia coli Gold (DE3) assessed as observation of positive signal at 0.1 mM by STD-NMR analysis
Target sequence in this assay (Q00987 whole entry, looked up, the tested form may be a part): as the sequence (Q00987 whole entry, the tested form may be a part) above

[7] = target: T1, E3 ubiquitin-protein ligase Mdm2; test: Binding affinity to 6xHis-taged MDM2 (unknown origin) expressed in Escherichia coli Gold (DE3) assessed as change in signal intensity at 0.1 mM by WATERLOGSY-NMR analysis
Target sequence in this assay (Q00987 whole entry, looked up, the tested form may be a part): as the sequence (Q00987 whole entry, the tested form may be a part) above

[8] = target: T1, E3 ubiquitin-protein ligase Mdm2; test: Competitive binding affinity to 6xHis-taged MDM2 (unknown origin) expressed in Escherichia coli Gold (DE3) assessed as observation of residual signal at 0.1 mM in presence of 0.1 mM nutlin-3a by STD-NMR analysis
Target sequence in this assay (Q00987 whole entry, looked up, the tested form may be a part): as the sequence (Q00987 whole entry, the tested form may be a part) above

[9] = target: T1, E3 ubiquitin-protein ligase Mdm2; test: Binding affinity to 6xHis-taged MDM2 (unknown origin) expressed in Escherichia coli Gold (DE3) assessed as inversion of signal intensity from negative to positive at 0.1 mM by WATERLOGSY-NMR analysis
[10] = target: Ras-related protein Rab-6A (Homo sapiens, UniProt P20340); test: Binding affinity to RAB6A (unknown origin) assessed as inhibition of RAB6A/[…] protein-protein interaction
Ras-related protein Rab-6A, sequence (P20340 whole entry, the tested form may be a part): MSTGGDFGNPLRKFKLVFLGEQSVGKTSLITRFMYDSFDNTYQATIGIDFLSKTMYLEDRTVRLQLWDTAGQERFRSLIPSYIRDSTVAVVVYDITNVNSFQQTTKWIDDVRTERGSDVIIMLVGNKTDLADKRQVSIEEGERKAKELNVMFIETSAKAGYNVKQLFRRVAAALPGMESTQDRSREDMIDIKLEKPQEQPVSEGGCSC

[11] = target: T2, BTB/POZ domain-containing protein KCTD11 (Homo sapiens, UniProt Q693B1); test: Binding affinity to recombinant N-terminal poly His-Trx tagged KCTD11 (15 to 115 residues) (unknown origin) expressed in Escherichia coli assessed as inhibition of KCTD11/cullin3a protein-protein interaction by fluorescence polarization assay
T2 sequence (Q693B1 whole entry): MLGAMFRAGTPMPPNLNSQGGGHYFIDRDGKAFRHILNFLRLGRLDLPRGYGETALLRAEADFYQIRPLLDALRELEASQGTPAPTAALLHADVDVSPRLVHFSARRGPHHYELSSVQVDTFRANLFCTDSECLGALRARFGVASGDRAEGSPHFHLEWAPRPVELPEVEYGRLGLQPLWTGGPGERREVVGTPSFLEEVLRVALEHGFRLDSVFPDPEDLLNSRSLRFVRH

Menin = target: T3, Menin (Homo sapiens, UniProt O00255); test: Binding affinity to human Menin expressed in Escherichia coli BL21 (DE3) assessed as inhibition of Menin/MLL1 protein-protein at 20 degree C by isothermal titration calorimetry
T3 sequence (O00255 whole entry): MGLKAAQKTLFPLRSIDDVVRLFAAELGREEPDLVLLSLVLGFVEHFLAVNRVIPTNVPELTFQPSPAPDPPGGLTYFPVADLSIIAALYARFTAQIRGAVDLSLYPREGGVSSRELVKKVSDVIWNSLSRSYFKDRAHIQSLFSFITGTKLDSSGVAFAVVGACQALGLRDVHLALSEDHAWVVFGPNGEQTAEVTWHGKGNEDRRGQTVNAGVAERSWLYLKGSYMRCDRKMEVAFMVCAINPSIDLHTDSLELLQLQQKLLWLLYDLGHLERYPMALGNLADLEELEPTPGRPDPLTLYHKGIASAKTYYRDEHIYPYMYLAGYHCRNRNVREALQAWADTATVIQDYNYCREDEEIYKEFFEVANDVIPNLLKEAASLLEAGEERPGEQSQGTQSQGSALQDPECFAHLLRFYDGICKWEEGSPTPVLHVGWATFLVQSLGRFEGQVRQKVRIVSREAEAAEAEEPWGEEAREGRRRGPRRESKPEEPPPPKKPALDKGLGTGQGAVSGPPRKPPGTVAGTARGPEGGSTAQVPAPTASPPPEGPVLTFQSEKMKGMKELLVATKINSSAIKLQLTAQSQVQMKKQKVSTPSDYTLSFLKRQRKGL

[12] = Binding affinity to Plasmodium falciparum N-terminal His6-tagged MTIP expressed in Escherichia coli BL21 (DE3) assessed as inhibition of MTIP/MyoA protein-protein interaction at 303 K by isothermal titration calorimetry
Estrogen receptor = target: T4, Estrogen receptor (Homo sapiens, UniProt P03372); test: Binding affinity to IPTG-induced human ER alpha LBD (301 to 553 residues) expressed in Escherichia coli BL21 (DE3) assessed as inhibition of ER alpha/NR2A protein-protein interaction at 25 degree by surface plasmon resonance assay
T4 sequence (P03372 whole entry): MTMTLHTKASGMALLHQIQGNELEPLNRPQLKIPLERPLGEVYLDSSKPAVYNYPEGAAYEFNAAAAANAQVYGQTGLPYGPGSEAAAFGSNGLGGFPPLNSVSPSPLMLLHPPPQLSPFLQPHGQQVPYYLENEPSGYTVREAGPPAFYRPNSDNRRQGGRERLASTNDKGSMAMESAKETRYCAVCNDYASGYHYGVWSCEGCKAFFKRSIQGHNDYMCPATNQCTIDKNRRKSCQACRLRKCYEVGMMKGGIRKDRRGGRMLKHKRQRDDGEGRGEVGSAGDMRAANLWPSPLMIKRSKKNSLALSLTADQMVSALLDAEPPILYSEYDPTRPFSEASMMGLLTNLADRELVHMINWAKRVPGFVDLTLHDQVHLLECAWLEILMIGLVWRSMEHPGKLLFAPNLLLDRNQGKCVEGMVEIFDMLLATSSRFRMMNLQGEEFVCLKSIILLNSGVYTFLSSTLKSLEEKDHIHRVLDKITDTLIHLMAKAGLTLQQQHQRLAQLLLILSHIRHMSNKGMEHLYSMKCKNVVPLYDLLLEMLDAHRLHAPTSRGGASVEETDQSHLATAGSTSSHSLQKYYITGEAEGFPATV

Structure (SMILES): CC[C@H](C)[C@H](NC(=O)[C@H](CO)NC(=O)[C@H](CCC(=O)O)NC(=O)[C@@H]1CCCN1C(=O)[C@H](CC(N)=O)NC(=O)[C@@H](N)CCC(=O)O)C(=O)N[C@@H](CC(C)C)C(=O)N[C@@H](CC(=O)O)C(=O)N[C@@H](CCC(=O)O)C(=O)N[C@@H](Cc1cnc[nH]1)C(=O)N[C@H](C(=O)N[C@@H](CCC(N)=O)C(=O)N[C@@H](CCCNC(=N)N)C(=O)N[C@H](C(=O)N[C@@H](CCSC)C(=O)O)C(C)C)C(C)C (H-ENPESILDEHVQRVM-OH)
- Kd [1]: 5000 nM

Structure (SMILES): CC(C)C[C@H](NC(=O)[C@H](CC(C)C)NC(=O)[C@H](CCCCN)NC(=O)[C@H](Cc1c[nH]c2ccccc12)NC(=O)[C@H](CC(C)C)NC(=O)[C@H](CC(=O)O)NC(=O)[C@H](CO)NC(=O)[C@@H](N)Cc1ccccc1)C(=O)O
- Kd [2]: 800 nM
- Activity [3]: Active
- Activity [4]: Active
- Activity [5]: Active
- Activity [6]: Active
- Activity [7]: Active

Structure (SMILES): CC(C)C[C@H](NC(=O)[C@H](CCCCN)NC(=O)[C@H](Cc1c[nH]c2ccccc12)NC(=O)[C@H](CC(C)C)NC(=O)[C@H](CC(=O)O)NC(=O)[C@H](CO)NC(=O)[C@@H](N)Cc1ccccc1)C(=O)O (H-FSDLWKL-OH)
- Activity [8]: Active
- Kd [2]: 150000 nM
- Activity [9]: Active
- Activity [3]: Active
- Activity [4]: Active
- Activity [5]: Active
- Activity [6]: Active

Structure (SMILES): CC(C)C[C@H](NC(=O)[C@H](CC(C)C)NC(=O)[C@H](Cc1cnc[nH]1)NC(=O)[C@H](Cc1ccc(O)cc1)NC(=O)[C@H](CC(C)C)NC(=O)[C@H](Cc1ccccc1)NC(=O)[C@H](CCC(N)=O)NC(=O)[C@H](CCC(=O)O)NC(=O)[C@H](CCCCN)NC(=O)[C@H](CCC(=O)O)NC(=O)[C@H](CC(=O)O)NC(=O)[C@@H](N)CC(=O)O)C(=O)N[C@@H](CO)C(=O)N[C@@H](Cc1ccccc1)C(=O)N[C@@H](CC(N)=O)C(=O)N[C@@H](C)C(=O)N[C@H](C(=O)O)C(C)C (H-DDEKEQFLYHLLSFNAV-OH)
- Kd [10]: 20000 nM

Structure (SMILES): CSCC[C@H](NC(=O)[C@@H](NC(=O)[C@H](Cc1ccc(O)cc1)NC(=O)[C@H](C)NC(=O)[C@H](CC(N)=O)NC(=O)[C@H](CCCNC(=N)N)NC(=O)[C@H](Cc1ccc(O)cc1)NC(=O)[C@H](CC(C)C)NC(=O)[C@H](CCC(=O)O)NC(=O)[C@H](CCC(=O)O)NC(=O)[C@H](Cc1ccccc1)NC(=O)[C@H](CO)NC(=O)[C@H](CC(C)C)NC(=O)CNC(=O)[C@H](CO)NC(=O)[C@@H](N)CC(N)=O)[C@@H](C)O)C(=O)N[C@H](C(=O)N[C@@H](CC(C)C)C(=O)N[C@@H](Cc1cnc[nH]1)C(=O)N[C@@H](CCCCN)C(=O)O)C(C)C (H-NSGLSFEELYRNAYTMVLHK-OH)
- Kd [11]: 497 nM

Structure (SMILES): C[C@H](NC(=O)[C@@H]1CCCN1C(=O)[C@H](Cc1ccccc1)NC(=O)[C@H](CCCNC(=N)N)NC(=O)[C@H](Cc1c[nH]c2ccccc12)NC(=O)[C@@H](N)CCCNC(=N)N)C(=O)N[C@@H](CCCNC(=N)N)C(=O)N1CCC[C@H]1C(=O)NCC(=O)N[C@H](C(=O)N[C@H](C(=O)NCC(=O)NCC(=O)NCC(=O)NCC(=O)NCC(=O)NCC(=O)NCC(=O)N[C@@H](CCCNC(=N)N)C(=O)N[C@@H](CCCNC(=N)N)C(=O)O)[C@@H](C)O)[C@@H](C)O (H-RWRFPARPGTTGGGGGGGRR-OH)
- Kd (Menin): 82 nM

Structure (SMILES): CC[C@H](C)[C@H](NC(=O)[C@H](Cc1cnc[nH]1)NC(=O)[C@H](C)NC(=O)[C@H](CCC(N)=O)NC(=O)[C@@H](NC(=O)[C@H](CCCNC(=N)N)NC(=O)[C@H](CC(C)C)NC(=O)[C@H](CC(C)C)NC(=O)[C@H](CO)NC(=O)[C@@H]1CCCN1C(=O)[C@@H](NC(=O)[C@@H](N)CC(N)=O)[C@@H](C)CC)C(C)C)C(=O)N[C@@H](CCCNC(=N)N)C(=O)N[C@@H](CCCCN)C(=O)N[C@@H](CCCCN)C(=O)N[C@@H](CCSC)C(=O)N[C@H](C(=O)N[C@@H](C)C(=O)N[C@@H](CCC(N)=O)C(=O)O)C(C)C (H-NIPSLLRVQAHIRKKMVAQ-OH)
- Kd [12]: 85 nM

Structure (SMILES): CC[C@H](C)[C@H](NC(=O)[C@H](CCCCN)NC(=O)[C@@H](N)Cc1cnc[nH]1)C(=O)N[C@@H](CC(C)C)C(=O)N[C@@H](Cc1cnc[nH]1)C(=O)N[C@@H](CCCNC(=N)N)C(=O)N[C@@H](CC(C)C)C(=O)N[C@@H](CC(C)C)C(=O)N[C@@H](CCC(N)=O)C(=O)N[C@@H](CC(=O)O)C(=O)N[C@@H](CO)C(=O)O (H-HKILHRLLQDS-OH)
- Kd (Estrogen receptor): 2500 nM
